Several values for one entry are separate records, joined by “and”; a condition that tells them apart may be missing. Equal values may be shown once.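 Five compound concentrations were applied to cells in 96-well plates for 48 hours; endpoints were derived by simple linear interpolation of the resulting dose-response curve. GI50 = concentration required for 50% inhibition of growth. At the TGI there is no net growth.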 Where a SMILES comes first, the peptide text is derived from it. The star is where a group is joined. Boc = CC(C)(C)OC(=O)*
Experiments:
Test in all cases: inhibition of tumour cell growth, NCI panel, 48 h
TK-10 renal = test system: TK-10 renal
SF-539 CNS = test system: SF-539 CNS
HCT-116 colon = test system: HCT-116 colon
T-47D breast = test system: T-47D breast
SN12C renal = test system: SN12C renal
HCT-15 colon = test system: HCT-15 colon
IGROV1 ovarian = test system: IGROV1 ovarian
MALME-3M melanoma = test system: MALME-3M melanoma
SK-MEL-5 melanoma = test system: SK-MEL-5 melanoma
OVCAR-3 ovarian = test system: OVCAR-3 ovarian

| SMILES | GI50 (TK-10 renal) | TGI (TK-10 renal) [µM] | GI50 (SF-539 CNS) [µM] | TGI (SF-539 CNS) [µM] | GI50 (HCT-116 colon) | TGI (HCT-116 colon) [µM] | GI50 (T-47D breast) [µM] | TGI (T-47D breast) [µM] | GI50 (SN12C renal) | TGI (SN12C renal) | GI50 (HCT-15 colon) [µM] | TGI (HCT-15 colon) [µM] | GI50 (IGROV1 ovarian) | TGI (IGROV1 ovarian) [µM] | GI50 (MALME-3M melanoma) [µM] | TGI (MALME-3M melanoma) [µM] | GI50 (SK-MEL-5 melanoma) [µM] | TGI (SK-MEL-5 melanoma) [µM] | GI50 (OVCAR-3 ovarian) | TGI (OVCAR-3 ovarian) |
| --- | --- | --- | --- | --- | --- | --- | --- | --- | --- | --- | --- | --- | --- | --- | --- | --- | --- | --- | --- | --- |
| COC(=O)c1ccc2c(c1)/C(=C\c1cc(Br)c(O)c(Br)c1)C(=O)N2 | 6.79 µM | > 23.3 | 5.85 | > 25 | 8.29 µM | > 25 | 8.72 | > 25 | 10 µM | > 25 µM | 5.47 | > 25 | 7.29 µM | > 25 | 2.08 | 13.8 | 4.48 | > 16.5 | 8.14 µM | > 25 µM |
| COC12C(COC(N)=O)C3=C(C(=O)C(C)=C(N)C3=O)N1CC1C2N1C (stereo not drawn) | – | 69.5 | – | 46.7 | – | 32.1 | – | 182 | – | 29.5 µM | – | 55.1 | – | 28.6 | – | 18.7 | – | 9.19 | – | 35.4 µM |
| COc1cc2c3c(c1OC)-c1cc4c(cc1CC3(C#N)N(C(=O)c1ccccc1)CC2)OCO4 (stereo not drawn) | – | 71 | – | 54.7 | – | > 87.2 | – | > 100 | – | > 100 µM | – | > 100 | – | > 82.3 | – | 97.7 | – | > 100 | – | > 86.6 µM |
| COC(=O)C(C)NC(=O)C(CCSC)NC(=O)C(Cc1ccccc1)NC(=O)OC(C)(C)C (stereo not drawn) (Boc-Phe-Met-Ala-OMe; configuration not given here) | 4.41 µg/mL | – | – | > 100 | 17.1 µg/mL | – | – | > 100 | 25.4 µg/mL | 71.8 µg/mL and > 100 µM | – | > 100 | 53.5 µg/mL | > 100 | – | > 100 | – | > 100 | 26.6 µg/mL | 52.7 µg/mL and > 100 µM |
| COc1ccc(-c2cc(/C=C/C(=O)c3ccc(OC)c(OC)c3)[nH]n2)cc1 | 2.11 µM | 4.31 | 1.27 | 2.61 | 1.01 µM | 2.48 | 1.6 | 5.15 | 1.64 µM | 3.78 µM | 1.35 | 3.56 | 1.57 µM | 3.65 | 1.62 | 3.45 | 1.77 | 3.72 | 1.19 µM | 2.47 µM |
| Cc1ccc(Nc2oc(-c3ccccc3)nc2[P+](c2ccccc2)(c2ccccc2)c2ccccc2)cc1 | 1.37 µM | 2.93 | 1.59 | 3.02 | 0.377 µM | 1.39 | 0.43 | 2.33 | 0.888 µM | 2.51 µM | 0.64 | 2.16 | 0.889 µM | 2.37 | 0.459 | 1.43 | 0.493 | 1.4 | 0.299 µM | 1 µM |
| O=C1CCC/C=C\C[C@H]2C=CC(=O)/C2=C/C[C@H](C/C=C\CC(F)(F)F)O1 | 0.618 µM | 2.17 | 0.676 | 3.08 | 0.311 µM | 0.614 | 0.635 | 2.86 | 0.492 µM | 2.04 µM | 0.316 | 0.867 | 0.596 µM | 1.98 | 0.587 | 2.29 | 0.342 | 0.78 | 0.538 µM | 1.75 µM |
| C=CCc1ccc(O)c(-c2ccc(O)c(CC=C)c2)c1 | 16 µM | 33.9 | 16.6 | 31.8 | 20 µM | > 54 | 20.3 | > 53.9 | 14.4 µM | 29.6 µM | 16.5 | 33.7 | 5.67 µM | 49.5 | 17.1 | 34.9 | 10.8 | 23.4 | 14.5 µM | 30.6 µM |
| CCOC(=O)c1c(-c2ccc(OC)cc2)c(C#N)c2c(C#N)c(N)nn2c1N | 16.4 µM | 69.2 | 2.39 | 8.6 | 4.35 µM | 19.4 | 2.93 | 33.1 | 4 µM | 49 µM | 2.95 | > 100 | 3.48 µM | > 100 | 4.05 | 82.7 | 1.78 | 4.41 | 3.28 µM | 14.2 µM |
| CN1CC[C@@H](c2c(O)cc(O)c3c(=O)cc(-c4ccc(C(F)(F)F)cc4Cl)oc23)[C@@H]1CO | 14.7 µM | 43.5 | 13.7 | 28.8 | 11.4 µM | 24.2 | 14.5 | 50.4 | 16.4 µM | 44.6 µM | 20.9 | 78.2 | 11.8 µM | 38.6 | 18.4 | 36.9 | 15.4 | 30.7 | 17 µM | 46.9 µM |
| Cn1c(Nc2ccc(C(F)(F)F)cc2)nc2cc(Oc3ccnc(-c4ncc(C(F)(F)F)[nH]4)c3)ccc21 | 2.91 µM | 16.2 | 0.232 | 13.7 | 0.0787 µM | 7.06 | 2.3 | 17.4 | 0.0855 µM | 16.6 µM | 0.0697 | 12.8 | 0.0668 µM | 15.4 | 0.0284 | 0.154 | 0.34 | 4.96 | 1.54 µM | 7.54 µM |
| O=C(/C=C/C=C/c1ccccc1)c1ccccc1 | – | 42.3 | – | 32.8 | – | 31.4 | – | 48.2 | – | 29.7 µM | – | 28.8 | – | 31.2 | – | 21.6 | – | 30.2 | – | 34.3 µM |
| C=COC(=O)N[C@H]1CCc2cc(OC)c(OC)c(OC)c2-c2ccc(SC)c(=O)cc21 | – | 86.5 | – | < 0.0464 | – | 0.74 | – | > 100 | – | 54.7 µM | – | > 100 | – | > 100 | – | > 100 | – | 0.097 | – | 0.0311 µM |
| CC(C)OC(=O)[C@H](C)NP(=O)(OC[C@H]1O[C@@H](n2ccc(=O)[nH]c2=O)[C@](C)(F)[C@@H]1O)Oc1ccccc1 (stereo partly drawn) | > 100 µM | > 100 | > 100 | > 100 | > 100 µM | > 100 | > 100 | > 100 | > 100 µM | > 100 µM | > 100 | > 100 | > 100 µM | > 100 | > 100 | > 100 | > 100 | > 100 | > 100 µM | > 100 µM |

Reference: PubChem BioAssay (NCI)
